pIC50: −log10 of the molar value. Where a SMILES comes first, the peptide text is derived from it. Bridges are numbered along the chain shown (N, C = ends). [ ]: non-standard residue; d: D form. The star is where a group is joined. ξ: configuration not given here. Phe(3-CF3) = N[C@@H](Cc1cccc(C(F)(F)F)c1)C(=O)O; Ala(morpholin-4-yl) = N[C@@H](CN1CCOCC1)C(=O)O; Phe(4-COOH) = N[C@@H](Cc1ccc(C(=O)O)cc1)C(=O)O; Bip = N[C@@H](Cc1ccc(-c2ccccc2)cc1)C(=O)O; Phe(3-F) = N[C@@H](Cc1cccc(F)c1)C(=O)O; Phe(3-Me) = Cc1cccc(C[C@H](N)C(=O)O)c1; Abu(3S-NH2) = C[C@H](N)[C@H](N)C(=O)O; NH(CH2)12COOH = O=C(O)CCCCCCCCCCCCN*; Val(3-OH) = CC(C)(O)[C@H](N)C(=O)O; hArg = N=C(N)NCCCC[C@H](N)C(=O)O; hhGln = NC(=O)CCCC[C@H](N)C(=O)O; 4Pal = N[C@@H](Cc1ccncc1)C(=O)O; Cha = N[C@@H](CC1CCCCC1)C(=O)O; Cit = NC(=O)NCCC[C@H](N)C(=O)O; Ile(3ξ) = CCC(C)[C@H](N)C(=O)O; Thr(3ξ) = CC(O)[C@H](N)C(=O)O; Carboxymethyl = O=C(O)C*; NMeA = CN[C@@H](C)C(=O)O; Orn = NCCC[C@H](N)C(=O)O; Aun = NCCCCCCCCCCC(=O)O; Dab = NCC[C@H](N)C(=O)O; Dap = NC[C@H](N)C(=O)O; AEEA = NCCOCCOCC(=O)O; Sar = CNCC(=O)O
molecular target: T1, PD-1/PD-L1 interaction (PE-labeled human PD-L1-Ig binding to Jurkat cell line over-expressing human PD-1) (Homo sapiens, UniProt Q15116); assay: Jurkat-PD-1 Cell Binding High-Content Screening Assay (CBA); settings: Jurkat-hPD-1 cells, PE-labeled PD-L1-Ig 20 nM final; read-out: Jurkat HPD1 PDL1 IC50
T1 construct: expressed in transfected cells; host or cells: Jurkat
T1 sequence (Q15116 25-288): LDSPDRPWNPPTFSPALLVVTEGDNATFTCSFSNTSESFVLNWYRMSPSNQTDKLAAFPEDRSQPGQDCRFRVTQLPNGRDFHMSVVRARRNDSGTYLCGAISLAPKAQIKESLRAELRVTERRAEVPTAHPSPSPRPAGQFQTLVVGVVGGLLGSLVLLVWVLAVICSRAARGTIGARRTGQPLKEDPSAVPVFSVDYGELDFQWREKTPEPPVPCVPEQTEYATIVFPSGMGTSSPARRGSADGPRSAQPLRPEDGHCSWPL
Method in brief: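 Jurkat-hPD-1 cells (8×10^3/well) in DMEM with 10% fetal calf serum were preincubated with compound for 2 h at 37 °C. PE-labeled PD-L1-Ig was then added at 20 nM final for 1 h. Cells were fixed in paraformaldehyde with Hoechst 33342, washed and imaged by high-content imaging.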

Structure (SMILES)	pIC50
CC(C)C[C@H]1NC(=O)[C@H](C)N(C)C(=O)[C@H](CCC(N)=O)NC(=O)[C@H](Cc2ccc(-c3ccccc3)cc2)NC(=O)[C@H](Cc2ccc(C(=O)O)cc2)NC(=O)[C@H](Cc2cccc(C(F)(F)F)c2)NC(=O)[C@H](CC(=O)O)NC(=O)[C@H](Cc2ccc(OCC(=O)O)cc2)NC(=O)[C@H](CN2CCOCC2)NC(=O)CSC[C@@H](C(=O)N[C@@H](CCN)C(=O)NCCCCCCCCCCCCC(=O)O)NC(=O)[C@H](CO)NC(=O)[C@H](C(C)(C)O)NC(=O)[C@H](CC2CCCCC2)NC(=O)[C@H](CCN)NC1=O [Example 1152] ({CH2CO}-[Ala(morpholin-4-yl)]Y(Carboxymethyl)D[Phe(3-CF3)][Phe(4-COOH)][Bip]Q[NMeA][dL][Dab][Cha][Val(3-OH)]SC[Dab]-{NH(CH2)12COOH}; thioether N-14)	7.93
CC(C)C[C@@H]1NC(=O)[C@H](Cc2c[nH]c3ccccc23)NC(=O)[C@H](CC(=O)O)NC(=O)[C@H](Cc2ccc(OCC(=O)O)cc2)NC(=O)[C@H](Cc2ccc(OCC(=O)O)cc2)NC(=O)CSC[C@@H](C(=O)N[C@@H](CCCN)C(=O)NCCOCCOCC(=O)NCCCCCCCCCCC(=O)O)NC(=O)[C@H](CCCCC(N)=O)NC(=O)[C@H](C(C)C)NC(=O)[C@H](CC2CCCCC2)NC(=O)[C@H](CCN)NC(=O)[C@@H](CC(C)C)NC(=O)[C@H](C)N(C)C(=O)[C@H](C(C)C)NC(=O)[C@H](Cc2ccc(-c3ccccc3)cc2)NC1=O [Example 2129] ({CH2CO}-Y(Carboxymethyl)Y(Carboxymethyl)DWL[Bip]V[NMeA][dL][Dab][Cha]V[hhGln]C[Orn][AEEA][Aun]-OH; thioether N-14)	7.95
Cc1cccc(C[C@@H]2NC(=O)[C@H](CC(=O)O)NC(=O)[C@H](Cc3ccc(OCC(=O)O)cc3)NC(=O)[C@H]([C@@H](C)O)NC(=O)CSC[C@@H](C(=O)N[C@@H](CCN)C(=O)NCCOCCOCC(=O)NCCCCCCCCCCC(=O)O)NC(=O)[C@H](CCC(=O)O)NC(=O)[C@H](C(C)C)NC(=O)[C@H](CC3CCCCC3)NC(=O)[C@H](CCN)NC(=O)[C@@H](CC(C)C)NC(=O)[C@H](C)N(C)C(=O)[C@H](Cc3ccc(OCC(=O)O)cc3)NC(=O)[C@H](Cc3ccc(-c4ccccc4)cc3)NC(=O)[C@H](Cc3ccc(OCC(=O)O)cc3)NC2=O)c1 [Example 1369] ({CH2CO}-TY(Carboxymethyl)D[Phe(3-Me)]Y(Carboxymethyl)[Bip]Y(Carboxymethyl)[NMeA][dL][Dab][Cha]VEC[Dab][AEEA][Aun]-OH; thioether N-14)	7.92
CC(C)C[C@H]1NC(=O)[C@H](C)N(C)C(=O)[C@H](Cc2ccc(OCC(=O)O)cc2)NC(=O)[C@H](Cc2ccc(-c3ccccc3)cc2)NC(=O)[C@H](Cc2ccc(OCC(=O)O)cc2)NC(=O)[C@H](Cc2c[nH]c3ccccc23)NC(=O)[C@H](CC(=O)O)NC(=O)[C@H](Cc2ccncc2)NC(=O)[C@H](Cc2ccc(OCC(=O)O)cc2)NC(=O)CSC[C@@H](C(=O)N[C@@H](CCN)C(=O)NCCOCCOCC(=O)NCCCCCCCCCCC(=O)O)NC(=O)[C@H]([C@@H](C)O)NC(=O)[C@H](C(C)C)NC(=O)[C@H](CC2CCCCC2)NC(=O)[C@H](CC(N)=O)NC1=O [Example 1378] ({CH2CO}-Y(Carboxymethyl)[4Pal]DWY(Carboxymethyl)[Bip]Y(Carboxymethyl)[NMeA][dL]N[Cha]VTC[Dab][AEEA][Aun]-OH; thioether N-14)	7.02
CCC(C)[C@@H]1NC(=O)[C@H](Cc2ccc(-c3ccccc3)cc2)NC(=O)[C@H](CC(C)C)NC(=O)[C@H](Cc2c[nH]c3ccccc23)NC(=O)[C@H](CC(=O)O)NC(=O)[C@H](Cc2ccc(O)cc2)NC(=O)[C@H](Cc2ccncc2)NC(=O)CSC[C@@H](C(=O)N[C@@H](CN)C(=O)NCCOCCOCC(=O)NCCCCCCCCCCC(=O)O)NC(=O)[C@H](CO)NC(=O)[C@H](C(C)C)NC(=O)[C@H](CC(C)C)NC(=O)[C@H](CC(N)=O)NC(=O)[C@@H](CC(C)C)NC(=O)[C@H](C)N(C)C1=O (stereo partly drawn) [Example 2053] ({CH2CO}-[4Pal]YDWL[Bip][Ile(3ξ)][NMeA][dL]NLVSC[Dap][AEEA][Aun]-OH; thioether N-14)	7.18
Cc1cccc(C[C@@H]2NC(=O)[C@H](CC(=O)O)NC(=O)[C@H](Cc3ccc(OCC(=O)O)cc3)NC(=O)[C@H](CCN)NC(=O)CSC[C@@H](C(=O)N[C@@H](CCN)C(=O)NCCCCCCCCCCC(=O)O)NC(=O)[C@H](CO)NC(=O)[C@H](C(C)(C)O)NC(=O)[C@H](CC3CCCCC3)NC(=O)[C@H](CCN)NC(=O)[C@@H](CC(C)C)NC(=O)[C@H](C)N(C)C(=O)[C@H](Cc3ccc(OCC(=O)O)cc3)NC(=O)[C@H](Cc3ccc(-c4ccccc4)cc3)NC(=O)[C@H](Cc3cccc(F)c3)NC2=O)c1 [Example 1310] ({CH2CO}-[Dab]Y(Carboxymethyl)D[Phe(3-Me)][Phe(3-F)][Bip]Y(Carboxymethyl)[NMeA][dL][Dab][Cha][Val(3-OH)]SC[Dab][Aun]-OH; thioether N-14)	7.51
CC(C)C[C@H]1NC(=O)[C@H](C)N(C)C(=O)[C@H](CCC(N)=O)NC(=O)[C@H](Cc2ccc(-c3ccccc3)cc2)NC(=O)[C@H](Cc2ccc(C(=O)O)cc2)NC(=O)[C@H](Cc2cccc(C(F)(F)F)c2)NC(=O)[C@H](CC(=O)O)NC(=O)[C@H](Cc2ccc(OCC(=O)O)cc2)NC(=O)[C@H]([C@H](C)N)NC(=O)CSC[C@@H](C(=O)N[C@@H](CCN)C(=O)NCCCCCCCCCCCCC(=O)O)NC(=O)[C@H](CO)NC(=O)[C@H](C(C)(C)O)NC(=O)[C@H](CC2CCCCC2)NC(=O)[C@H](CCN)NC1=O [Example 1190] ({CH2CO}-[Abu(3S-NH2)]Y(Carboxymethyl)D[Phe(3-CF3)][Phe(4-COOH)][Bip]Q[NMeA][dL][Dab][Cha][Val(3-OH)]SC[Dab]-{NH(CH2)12COOH}; thioether N-14)	7.74
CC(C)C[C@@H]1NC(=O)[C@H](Cc2c[nH]c3ccccc23)NC(=O)[C@H](CC(=O)O)NC(=O)[C@H](Cc2ccc(OCC(=O)O)cc2)NC(=O)[C@H](CCCCNC(=N)N)NC(=O)CSC[C@@H](C(=O)NCC(=O)NCCOCCOCC(=O)N[C@@H](CCCN)C(=O)NCCCCCCCCCCC(=O)O)NC(=O)[C@H](CCCNC(N)=O)NC(=O)[C@H](C(C)C)NC(=O)[C@H](CC2CCCCC2)NC(=O)[C@H](CCN)NC(=O)[C@@H](CC(C)C)NC(=O)[C@H](C)N(C)C(=O)[C@H](C(C)C)NC(=O)[C@H](Cc2ccc(-c3ccccc3)cc2)NC1=O [Example 2180] ({CH2CO}-[hArg]Y(Carboxymethyl)DWL[Bip]V[NMeA][dL][Dab][Cha]V[Cit]CG[AEEA][Orn][Aun]-OH; thioether N-14)	7.79
CC(=O)NCCCC[C@@H]1NC(=O)[C@H](C(C)C)NC(=O)[C@H](CC2CCCCC2)NC(=O)[C@H](CCN)NC(=O)[C@@H](CC(C)C)NC(=O)[C@H](C)N(C)C(=O)[C@H](Cc2ccc(O)cc2)NC(=O)[C@H](Cc2ccc(-c3ccccc3)cc2)NC(=O)[C@H](C(C)C)NC(=O)[C@H](Cc2cccc(C)c2)NC(=O)[C@H](CC(=O)O)NC(=O)[C@H](Cc2ccc(OCC(=O)O)cc2)NC(=O)[C@H](C(C)O)NC(=O)CSC[C@@H](C(=O)N(C)CC(=O)NCCCCCCCCCCC(=O)O)NC1=O (stereo partly drawn) [Example 2274] ({CH2CO}-[Thr(3ξ)]Y(Carboxymethyl)D[Phe(3-Me)]V[Bip]Y[NMeA][dL][Dab][Cha]VK(Ac)C[Sar][Aun]-OH; thioether N-14)	7.07

same assay, conditions: PE-labeled PD-L1-Ig 20 nM final, Jurkat-hPD-1 cells; read-out: Jurkat HPD1 PDL1 IC50

Structure (SMILES)	pIC50
CCC(C)[C@@H]1NC(=O)[C@H](Cc2ccc(-c3ccccc3)cc2)NC(=O)[C@H](C(C)C)NC(=O)[C@H](Cc2c[nH]c3ccccc23)NC(=O)[C@H](CC(=O)O)NC(=O)[C@H](Cc2ccc(C(=O)O)cc2)NC(=O)[C@H](Cc2cnc[nH]2)NC(=O)CSC[C@@H](C(=O)N[C@@H](CCN)C(=O)N[C@@H](CCC(=O)NCCCCCCCCCCCCC(=O)O)C(=O)O)NC(=O)[C@H](CCC(=O)O)NC(=O)[C@H](C(C)(C)O)NC(=O)[C@H](CC2CCCCC2)NC(=O)[C@H](CCN)NC(=O)[C@@H](CC(C)C)NC(=O)[C@H](C)N(C)C1=O (stereo partly drawn) [Example 2632] ({CH2CO}-H[Phe(4-COOH)]DWV[Bip][Ile(3ξ)][NMeA][dL][Dab][Cha][Val(3-OH)]EC[Dab]E(NH(CH2)12COOH)-OH; thioether N-14)	7.60
Cc1cccc(C[C@@H]2NC(=O)[C@H](CC(=O)O)NC(=O)[C@H](Cc3ccc(OCC(=O)O)cc3)NC(=O)[C@H](CCN)NC(=O)CSC[C@@H](C(=O)N[C@@H](CCN)C(=O)NCCOCCOCC(=O)NCCCCCCCCCCC(=O)O)NC(=O)[C@H](Cc3cnc[nH]3)NC(=O)[C@H](C(C)(C)O)NC(=O)[C@H](CC3CCCCC3)NC(=O)[C@H](CCN)NC(=O)[C@@H](CC(C)C)NC(=O)[C@H](C)N(C)C(=O)[C@H](Cc3ccc(OCC(=O)O)cc3)NC(=O)[C@H](Cc3ccc(-c4ccccc4)cc3)NC(=O)[C@H](Cc3ccc(OCC(=O)O)cc3)NC2=O)c1 [Example 2551] ({CH2CO}-[Dab]Y(Carboxymethyl)D[Phe(3-Me)]Y(Carboxymethyl)[Bip]Y(Carboxymethyl)[NMeA][dL][Dab][Cha][Val(3-OH)]HC[Dab][AEEA][Aun]-OH; thioether N-14)	7.76
CCC(C)[C@@H]1NC(=O)[C@H](Cc2ccc(-c3ccccc3)cc2)NC(=O)[C@H](C(C)C)NC(=O)[C@H](Cc2c[nH]c3ccccc23)NC(=O)[C@H](CC(=O)O)NC(=O)[C@H](Cc2ccc(OCC(=O)O)cc2)NC(=O)[C@H](Cc2ccc(OCC(=O)O)cc2)NC(=O)CSC[C@@H](C(=O)N[C@@H](CCN)C(=O)NCCOCCOCC(=O)NCCCCCCCCCCC(=O)O)NC(=O)[C@H](CCCNC(N)=O)NC(=O)[C@H](C(C)(C)O)NC(=O)[C@H](CC2CCCCC2)NC(=O)[C@H](Cc2cnc[nH]2)NC(=O)[C@@H](CC(C)C)NC(=O)[C@H](C)N(C)C1=O (stereo partly drawn) [Example 2587] ({CH2CO}-Y(Carboxymethyl)Y(Carboxymethyl)DWV[Bip][Ile(3ξ)][NMeA][dL]H[Cha][Val(3-OH)][Cit]C[Dab][AEEA][Aun]-OH; thioether N-14)	7.87
